From publication PMC6085350, “Small molecule inhibitors of RAS-effector protein interactions derived using an intracellular antibody fragment” (Nature Communications, 2018)

What was measured:
Assay type in all cases: cell-based, human
[1] = system: AKT phosphorylation (Ser473) in H358 cells (KRAS^G12C); test: Biomarker phosphorylation assay, pAKT, H358; conditions: EGF 10 min
Description: (§1) Fig. 5 Abd-7 results on RAS-dependent signalling pathways and cell viability. a, b DLD-1 (a) or H358 (b) cells were serum-starved for 24 h, incubated in mono-layer with Abd-7 in a range from 2, 5, 10 and 20 μM for 3 h and stimulated with EGF 10 min. Proteins were extracted and separated by SDS-PAGE and transferred to membranes for Western analysis with anti-pAKT, anti-pERK, anti-pan AKT and anti-pan ERK. Anti-cyclophilin B antibody was the loading control. Signal was developed using standard ECL. c–e Effects of compounds Abd-2, Abd-4, Abd-5, Abd-6, and Abd-7 on the viability of human cancer cells lines was assessed for a 2-D culture of DLD-1 (mutant KRAS^G13D) cells and HT1080 cells (mutant NRAS^Q61K). The cells were treated with a dose range from 0 μM to 20 μ and incubated for 72 h when cell viability was assessed using CellTitreGlo. […] Each experiment was repeated at least three times (a, b) and four times (c, d). Where error bars are presented, they correspond to mean values ± SD of biological repeats
A total of 450,000 DLD1 or 640,000 H358 cells were seeded per well of a six well plate. Approximately, 20 h later, the medium was removed, the cells washed twice with PBS and DMEM without FBS was added and left for 24 h. The medium was removed and 2 ml of DMEM no FBS was added with the appropriate concentration of compound (DMSO, 2, 5, 10 or 20 μM) for 3 h. Cells were stimulated with EGF (50 ng/ml) for 10 min, washed once with PBS and directly lysed in SDS-Tris buffer (1% SDS, 10 mM Tris-HCl pH 7.4) supplemented with protease inhibitors (Sigma) and phosphatase inhibitors (Thermo-Fisher). Cell lysates were sonicated with a Branson Sonifier and the protein concentrations determined by using the Pierce BCA protein assay kit (Thermo-Fisher). Furthermore, 10 μg of protein were resolved on 10 or 12.5% SDS-PAGE and subsequently transferred onto a PVDF membrane (GE). The membrane was blocked (with 10% non-fat milk (Sigma) or 10% BSA (Sigma) in TBS-0.1% Tween20) and incubated overnight with primary antibody at 4 °C. […]

[2] = system: ERK1/2 phosphorylation in DLD-1 cells (KRAS^G13D); test: Biomarker phosphorylation assay, pERK, DLD-1; conditions: DLD-1, 2-20 μM, 3 h, EGF 10 min
Description: as §1
A total of 450,000 DLD1 or 640,000 H358 cells were seeded per well of a six well plate. Approximately, 20 h later, the medium was removed, the cells washed twice with PBS and DMEM without FBS was added and left for 24 h. […] Cell lysates were sonicated with a Branson Sonifier and the protein concentrations determined by using the Pierce BCA protein assay kit (Thermo-Fisher). […]

RAS-effector PPI = test: RAS biosensor BRET assay (partners not specified)
Description: The BRET assay was carried out as described elsewhere. A total of 650,000 HEK293T were seeded in each well of a six well plate. Approximately, 24 h later, cells were transfected with an appropriated BRET-based RAS biosensor (i.e. RAS-effector) using Lipofectamine 2000 transfection reagent (Thermo-Fisher). Cells were detached 24 h later and washed with PBS and seeded in a white 96 well plate (clear bottom, PerkinElmer, cat#6005181) in OptiMEM no phenol red medium (Life Technologies) complemented with 4% FBS. Cells were left for 4 h at 37 °C before adding compounds. […] The final concentrations in the cells were 0, 5, 10 and 20 μM (therefore the intermediate 10X concentrations were 0, 50, 100 and 200 μM. Furthermore, 10 μl of 10X compounds were added in each well of the 96 well plate to 0, 5, 10 and 20 μM final concentrations (with final 0.2% DMSO each). Quadruplicates were performed for each point. Cells were left for an additional 20 h at 37 °C before the BRET2 signal reading directly after addition of Coelenterazine 400a substrate (10 μM final) to cells (Cayman Chemicals, cat#16157). BRET2 reading was carried out on an Envision instrument (2103 Multilabel Reader, PerkinElmer) with the BRET2 Dual Emission optical module (515 nm ± 30 and 410 nm ± 80; PerkinElmer).

Row | Structure (SMILES) | inhibition of AKT phosphorylation ([1]; H358, 20 μM, 3 h) | concentration at which inhibition of AKT phosphorylation initiates ([1]; H358, starved 24 h, 3 h compound, Western) [µM] | inhibition at 10 µM ([1]; Homo sapiens, NCI-H358, H358, 10 μM, 3 h) [%] | inhibition of ERK1/2 phosphorylation [2] | activity in the RAS biosensor BRET assay (RAS-effector PPI)
1 | COc1nc(-c2cccc3c2OCCO3)ccc1Nc1ccc(CN(C)C)cc1 [Abd-7] | complete inhibition | 2 | > 50 | diminution of pERK levels | –
2 | O=C(NCC1COc2ccccc2O1)c1ccco1 (centres unmarked) [Abd-2] | – | – | – | – | do not show activity
